test: TarO Biochemical Enzymatic Assay: The TarO biochemical enzymatic assay is a liquid chromatography-mass spectroscopy (LC-MS) based end point assay that measures C55-P-P-GlcNAc (LIPID III) production. The TarO biochemical enzymatic assay was performed in a 384-well microtiter plate (Labcyte) with a reaction volume of 20 μl. The reaction mix contained 0.1 μgs/μl of TarO membrane preparation derived from MRSA COL (lysostaphin/lysozyme treated, centrifuged at 40K rpm, and re-suspended in 50 mM Tris pH 7.5, 10 mM MgCl2), 1500 μM UDP-GlcNAc, x 75 μM C55-P substrates in 83 mM Tris pH 8.0, 6.7 mM MgCl2, 6 mM CHAPS, and 8.3% DMSO buffer. The enzyme reactions were quenched by extraction in 40 μl of 1-pentanol containing 0.04 μM […] C55-PP-GlcNAc, which was used as an internal standard. A 10 μl volume of the quenched reaction mixture (pH≈3) from each well was injected onto a reversed-phase column (C4, 5 m, 2.1×50 mm, Thermo Scientific Biobacis-4) and eluted using a NH4Ac/H2O/MeOH gradient (solvent A: 10 mM NH4Ac in water, pH 5.6; solvent B: NH4Ac (1 M)-Isopropanol (1:90, v/v, pH 5.6). The HPLC conditions were as follows: 15% solvent B for 15 seconds followed by a gradient to 90% solvent B in 90 seconds; then solvent B was kept at 95% for 10 seconds followed by a gradient to 8% solvent B in 0.1 minute. The column was then equilibrated at 15% B for 1 minute before the next injection. The flow rate was kept constant at 600 μl/minute. Mass spectrometric detection was carried out in the negative-ion mode using selected reaction monitoring (SRM). Typical mass spectrometric conditions were as follows: heated capillary temperature, 210° C.; spray voltage, 2500 V; desolvation gas (N2), 40 l/h; auxiliary gas (N2), 35 l/h. Selected ion current (SIC) chromatograms of C55-PP-GlcNAc and internal standard 15C C55-PP-GlcNAc were plotted and integrated using LCQuan incorporated in Xcalibur software (ThermoFinnigan). The linearity of C55-PP-GlcNAc concentration versus mass spectrometric signal (AC55-PP-GlcNAc/A15C-C55-PP-GlcNAc) was determined with purified C55-PP-GlcNAc. The IC50 values were calculated using the nonlinear regression analysis (sigmoidal dose response fit allowing for a variable slope) of percent inhibition data with minimum and maximum values set to 0 and 100 percent.

Row | Structure (SMILES) | IC50
1 | C[C@H]1[C@@H](c2cc(C(F)(F)F)cc(C(F)(F)F)c2)OC(=O)N1C(=O)NCc1cncc2ccccc12 | 30 nM
2 | C[C@H]1[C@@H](c2cc(F)cc(C(F)(F)F)c2)OC(=O)N1C(=O)NCc1cncc2ccccc12 | 10 nM
3 | O=C(NCc1cncc2ccccc12)N1C(=O)O[C@H](c2cc(F)cc(C(F)(F)F)c2)[C@@H]1CO | 210 nM
4 | C[C@H]1[C@@H](c2cccc(C(F)(F)F)c2)OC(=O)N1C(=O)NCc1cncc2ccccc12 | 160 nM
5 | C[C@H]1[C@@H](c2cccc(C(F)(F)F)c2)OC(=O)N1C(=O)NCc1cncc2cccnc12 | 130 nM
6 | C[C@H]1[C@@H](c2cc(C(F)(F)F)cc(C(F)(F)F)c2)OC(=O)N1C(=O)NCc1cncc2cccnc12 | 10 nM
7 | O=C(NCc1cncc2cccnc12)N1C(=O)O[C@H](c2cc(C(F)(F)F)cc(C(F)(F)F)c2)[C@@H]1CO | 140 nM
8 | C[C@H]1[C@@H](c2cc(F)cc(C(F)(F)F)c2)OC(=O)N1C(=O)NCc1cnc2sccn12 | 77000 nM
9 | O=C(NCc1cccc2cncnc12)N1C(=O)O[C@H](c2cc(C(F)(F)F)cc(C(F)(F)F)c2)[C@@H]1CO | 80 nM
10 | C[C@H]1[C@@H](c2cc(F)cc(C(F)(F)F)c2)OC(=O)N1C(=O)NCc1cccc(N(C)C)c1 | 40 nM
11 | C[C@H]1[C@@H](c2cc(F)cc(C(F)(F)F)c2)OC(=O)N1C(=O)NCc1cccc2cc[nH]c12 | 60 nM
12 | COc1cncc(CNC(=O)N2C(=O)O[C@H](c3cc(C(F)(F)F)cc(C(F)(F)F)c3)[C@@H]2CO)c1OC | 30 nM
13 | C[C@H]1[C@@H](c2cc(F)cc(Br)c2)OC(=O)N1C(=O)NCc1cncc2ccccc12 | 240 nM
14 | C[C@H]1[C@@H](c2cc(F)cc(C(F)(F)F)c2)OC(=O)N1C(=O)NCc1ccccc1OC(F)F | 20 nM
15 | C[C@H]1[C@@H](c2cc(F)cc(C(F)(F)F)c2)OC(=O)N1C(=O)NCc1ccccc1C(F)(F)F | 30 nM
16 | COc1cc([C@H]2OC(=O)N(C(=O)NCc3cccc4nccnc34)[C@H]2CO)cc(C(F)(F)F)c1 | 450 nM
17 | COc1ccncc1CNC(=O)N1C(=O)O[C@H](c2cc(C(F)(F)F)cc(C(F)(F)F)c2)[C@@H]1CO | 200 nM
18 | C[C@H]1[C@@H](c2cc(C(F)(F)F)cc(C(F)(F)F)c2)OC(=O)N1C(=O)NCC1CCCc2ccccc21 (some centres undefined) | 160 nM
19 | C[C@H]1[C@@H](c2cc(C(F)(F)F)cc(C(F)(F)F)c2)OC(=O)N1C(=O)NCc1cccc2ccnn12 | 10 nM
20 | C[C@H]1[C@@H](c2cc(C(F)(F)F)cc(C(F)(F)F)c2)OC(=O)N1C(=O)NCc1cccc2c1OCCO2 | 10 nM

Row | Structure (SMILES) | IC50
21 | C[C@H]1[C@@H](c2cc(C(F)(F)F)cc(C(F)(F)F)c2)OC(=O)N1C(=O)NCc1ncccc1Br | 260 nM
22 | COc1cc([C@H]2OC(=O)N(C(=O)NCc3cncc4cccnc34)[C@H]2CO)cc(C(F)(F)F)c1 | 1240 nM
23 | C[C@H]1[C@@H](c2cc(C(F)(F)F)cc(C(F)(F)F)c2)OC(=O)N1C(=O)NCc1cnc2c(c1)CCC2 | 1870 nM
24 | C[C@H]1[C@@H](c2cc(F)cc(C(F)(F)F)c2)OC(=O)N1C(=O)N(O)Cc1cccc2ccccc12 | 7760 nM
25 | C[C@H]1[C@@H](c2cc(C(F)(F)F)cc(C(F)(F)F)c2)OC(=O)N1C(=O)NCc1nccc2ccoc12 | 150 nM
26 | Cc1ccccc1CNC(=O)N1C(=O)O[C@H](c2cc(F)cc(C(F)(F)F)c2)[C@@H]1C | 140 nM
27 | C[C@H]1[C@@H](c2cc(F)cc(C(F)(F)F)c2)OC(=O)N1C(=O)NCc1cccc2cncnc12 | 340 nM
28 | C[C@H]1[C@@H](c2cc(F)cc(C(F)(F)F)c2)OC(=O)N1C(=O)NCc1ccccc1-n1cccc1 | 450 nM
29 | C[C@H]1[C@@H](c2cc(F)cc(C(F)(F)F)c2)OC(=O)N1C(=O)NCc1cccc2c1C(=O)NC2 | 1690 nM
30 | CCOc1cc([C@H]2OC(=O)N(C(=O)NCc3cccc4cncnc34)[C@H]2C)nc(C(F)(F)F)c1 | 10 nM
31 | C[C@H]1[C@@H](c2cc(C(F)(F)F)cc(C(F)(F)F)c2)OC(=O)N1C(=O)NCc1cccnc1N1CCOCC1 | 3610 nM
32 | COc1ccccc1CNC(=O)N1C(=O)O[C@H](c2cc(F)cc(C(F)(F)F)c2)[C@@H]1C | 30 nM
33 | C[C@H]1[C@@H](c2cc(F)cc(C(F)(F)F)c2)OC(=O)N1C(=O)NCc1cccc2c1OCCO2 | 50 nM
34 | Cc1cccnc1CCNC(=O)N1C(=O)O[C@H](c2cc(C(F)(F)F)cc(C(F)(F)F)c2)[C@@H]1C | 1780 nM
35 | C[C@H]1[C@@H](c2cc(F)cc(C3CC3)c2)OC(=O)N1C(=O)NCc1cncc2ccccc12 | 240 nM
36 | Cc1nc(C(C)C)sc1CNC(=O)N1C(=O)O[C@H](c2cc(F)cc(C(F)(F)F)c2)[C@@H]1C | 160 nM
37 | COc1cccnc1CNC(=O)N1C(=O)O[C@H](c2cc(C(F)(F)F)cc(C(F)(F)F)c2)[C@@H]1C | 910 nM
38 | C[C@H]1[C@@H](c2cc(F)cc(C(F)(F)F)c2)OC(=O)N1C(=O)NCc1cccc2nccnc12 | 190 nM
39 | C[C@H]1[C@@H](c2cc(F)cc(C(F)(F)F)c2)OC(=O)N1C(=O)NCc1ccnc2ccccc12 | 200 nM
40 | C[C@H]1[C@@H](c2cc(F)cc(C(F)(F)F)c2)OC(=O)N1C(=O)NCc1nccc2sccc12 | 120 nM

Row | Structure (SMILES) | IC50
41 | C[C@H]1[C@@H](c2cc(F)cc(C(F)(F)F)c2)OC(=O)N1C(=O)NCc1ccccc1CN(C)C | 690 nM
42 | Cc1cccnc1CNC(=O)N1C(=O)O[C@H](c2cc(C(F)(F)F)cc(C(F)(F)F)c2)[C@@H]1C | 440 nM
43 | C[C@H]1[C@@H](c2cc(C(F)(F)F)cc(C(F)(F)F)c2)OC(=O)N1C(=O)NCc1cccc2nccnc12 | 50 nM
44 | Cc1nc(C)c(CNC(=O)N2C(=O)O[C@H](c3cc(F)cc(C(F)(F)F)c3)[C@@H]2C)s1 | 2650 nM
45 | C[C@H]1[C@@H](c2cc(F)cc(C(F)(F)F)c2)OC(=O)N1C(=O)NCc1ccccc1Cl | 170 nM
46 | CCOc1ccccc1CNC(=O)N1C(=O)O[C@H](c2cc(F)cc(C(F)(F)F)c2)[C@@H]1C | 100 nM
47 | C[C@H]1[C@@H](c2cccc(C(F)F)c2)OC(=O)N1C(=O)NCc1cncc2ccccc12 | 490 nM
48 | COc1cc([C@H]2OC(=O)N(C(=O)NCc3cccc4cncnc34)[C@H]2CO)cc(C(F)(F)F)c1 | 870 nM
49 | C[C@H]1[C@@H](c2cc(F)cc(C(F)(F)F)c2)OC(=O)N1C(=O)NCc1cccc2ccccc12 | 20 nM
50 | COc1ccccc1CNC(=O)N1C(=O)O[C@H](c2cccc(C(F)(F)F)c2)[C@@H]1C | 220 nM
51 | Cc1cnc(F)c(CNC(=O)N2C(=O)O[C@H](c3cc(C(F)(F)F)cc(C(F)(F)F)c3)[C@@H]2C)c1 | 610 nM
52 | C=CCOc1cc([C@H]2OC(=O)N(C(=O)NCc3cncc4ccccc34)[C@H]2C)nc(C(F)(F)F)c1 | 60 nM
53 | C[C@H]1[C@@H](c2cc(F)cc(C(F)(F)F)c2)OC(=O)N1C(=O)NCc1cccc2cn[nH]c12 | 1420 nM
54 | C[C@H]1[C@@H](c2cccc(C(C)(F)F)c2)OC(=O)N1C(=O)NCc1cncc2ccccc12 | 250 nM
55 | C[C@H]1[C@@H](c2cc(F)cc(C(F)(F)F)c2)OC(=O)N1C(=O)NCc1ccnc2cccnc12 | 540 nM
56 | COc1cc([C@H]2OC(=O)N(C(=O)NCc3cncc4ccccc34)[C@H]2CO)cc(C(F)(F)F)c1 | 200 nM
57 | C[C@H]1[C@@H](c2cc(F)cc(C(F)(F)F)c2)OC(=O)N1C(=O)NCc1ccccc1[N+](=O)[O-] | 10 nM
58 | C[C@H]1[C@@H](c2cc(F)cc(C(F)(F)F)c2)OC(=O)N1C(=O)NCc1cccc2ncccc12 | 850 nM
59 | C[C@H]1[C@@H](c2cc(F)cc(C(F)(F)F)c2)OC(=O)N1C(=O)NCc1ccccc1S(C)(=O)=O | 2970 nM

Source: ChEMBL document CHEMBL5728748 (2021)
